Reference: patent US7736909B2, “Methods and compositions comprising capture agents” (Board of Regents, the University of Texas System, priority 2003, dated 2010)
Like-named read-outs stand apart in the source and are kept apart here. Non-standard residues stand in square brackets, D forms with d. Residues, ends and D or L forms follow the SMILES beside them. N(4-Sulfamoylphenethyl)Gly = NS(=O)(=O)c1ccc(CCNCC(=O)O)cc1; Gly(N-piperonyl) = O=C(O)CNCc1ccc2c(c1)OCO2; Gly(N-CH2CH2OH) = O=C(O)CNCCO; Nlys = NCCCCNCC(=O)O

How the values were obtained:
ubiquitin = ubiquitin (Homo sapiens, UniProt P0CG47); assay: pull-down of unlabeled ubiquitin by Tentagel-displayed peptide, probed with Texas Red-labeled anti-ubiquitin antibody; assay type: binding; conditions: semi-quantitative
Experimental: To study the behavior of the ubiquitin-targeted chimeric binding element in capture assays, the peptide was synthesized on Tentagel and employed in “pull-down” assays. Beads displaying NH2-[…], a control peptide NH2-[…], or no peptide at all, were incubated with the indicated concentration of unlabeled ubiquitin in the presence of a 1000-fold excess of E. coli proteins (FIG. 26B). After thorough washing, the beads were then probed with Texas Red-labeled anti-ubiquitin-labeled polyclonal antibodies to visualize the bound protein. […] In all cases, the level of fluorescence from the chimeric binding element-displaying beads was much higher than from either set of control beads (see FIG. 26C for a direct comparison).

His6Gal80 [1] = biological target: T1, His6Gal80 (Saccharomyces cerevisiae, UniProt P04387); assay: capturing dilute proteins with Tentagel-bound peptide; assay type: binding; conditions: peptide on Tentagel
T1 construct: His6 (N); made in house; host or cells: E. coli
T1 sequence (P04387 1-435): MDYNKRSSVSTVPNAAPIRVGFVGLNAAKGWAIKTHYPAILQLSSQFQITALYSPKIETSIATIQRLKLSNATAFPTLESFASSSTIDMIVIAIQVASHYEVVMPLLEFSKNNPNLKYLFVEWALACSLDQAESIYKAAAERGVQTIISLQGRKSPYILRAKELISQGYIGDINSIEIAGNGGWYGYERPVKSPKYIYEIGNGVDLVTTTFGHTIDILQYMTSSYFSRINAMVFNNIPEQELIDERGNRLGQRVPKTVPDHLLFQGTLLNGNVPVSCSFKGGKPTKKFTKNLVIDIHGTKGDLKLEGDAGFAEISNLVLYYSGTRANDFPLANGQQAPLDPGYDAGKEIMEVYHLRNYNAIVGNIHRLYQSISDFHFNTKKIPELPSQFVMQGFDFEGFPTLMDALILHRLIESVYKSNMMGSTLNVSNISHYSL
Experimental: Capturing Dilute Proteins. Approximately 0.014 g of Tentagel beads displaying Gal80 binding peptide was blocked with 10% milk overnight at 4° C. The beads were divided equally into 7 tubes and incubated with 500 μL of buffer containing various amounts of His6Gal80 protein (5 to 400 ng) for 2 hours at 4° C. After washing four times with TBST buffer and twice with PBS, gel loading dye was added directly to the beads and the amount of bound His6Gal80 was determined as described above. A second gel containing known amounts of pure His6Gal80 was analyzed simultaneously and was used as a standard to quantitate the amount of His6Gal80 retained on the beads.
Efficient capture of dilute proteins. In all of the above examples, the protein was loaded onto the peptide-coated bead at a relatively high concentration (300 nM) prior to dilution. Since the concentration of most proteins of interest in a biological sample will be lower, it was of interest to evaluate the ability of a Tentagel-bound peptide to capture a dimeric protein from more dilute solutions. […] After washing, the bound protein was detected by boiling the beads in denaturing loading buffer followed by SDS-PAGE/western, blot analysis of the resulting supernatant. […] Further dilution of the protein in this assay format exceeded the sensitivity of the western blot. […]

MBP-Mdm2 [2] = biological target: T2, MBP-Mdm2 (UniProt P0AEX9+Q00987); assay: isothermal titration calorimetry (ITC); assay type: binding, human
T2 construct: The domain of the human Mdm2 protein represented by residues 1-188 is a structurally characterized monomer; made in house; host or cells: E. coli BL21-RIL
Experimental: (§1) Isothermal titration calorimetry (ITC). ITC experiments were conducted on a MicroCal VP-ITC instrument. For the titration, 70 μM MBP-hmdm2 or 30 μM GST in PBS+10% DMSO was taken in the sample cell. To this, 15 μl aliquots of the peptoid solution in the same buffer were added from a computer-controlled 250 μl rotating syringe. The syringe was set at 400 rpm with intervals of 3 minutes between injections to attain baseline stabilization. The heat absorbed or released accompanying the titration was recorded as differential power (DP) by the instrument software. Experiments were carried out with C values between 1 and 400. The total heat recorded was then fitted via a non-linear least-squares minimization method. Titration of the ligand solution with the buffer alone gave the heats of dilution. Titration with MBP alone was recorded under identical conditions.

GST = biological target: T3, GST (Schistosoma japonicum, UniProt P08515); assay: isothermal titration calorimetry (ITC); assay type: binding; conditions: in solution; read-out: equilibrium dissociation constant, ITC
T3 construct: made in house; host or cells: E. coli BL21-RIL
Experimental: as §1

MBP = MBP (Escherichia coli, UniProt P0AEX9); assay: isothermal titration calorimetry (ITC), MBP alone; assay type: binding; conditions: in solution
Experimental: as §1

MBP-Mdm2 [3] = biological target: T2, MBP-Mdm2; assay type: binding, human
Experimental: Five milligrams of TentaGel beads (displaying the respective hit sequences, Nlys-Nbsa-Nlys-Nser-Nbsa-Npip-Nbsa-Npip-CONH2 and Nbsa-Nlys-Nbsa-Npip-Nlys-CONH2 or a random sequence Npip-Nser-Nbsa-Nall-Nlys-Npip-CONH2) were equilibrated in phosphate-buffered saline (PBS) for 60 minutes. The buffer was removed and the beads were blocked with 2% BSA for 60 minutes to saturate any non-specific binding sites. The beads were then washed with PBS (3 times), and incubated with 500 nM (unless indicated otherwise) of a Texas Red-labeled protein (MBP-MDM2 or GST) in 2% BSA (in 1×TBST buffer), in a 300 μL volume for 60 minutes. The beads were washed with TBST six times to remove any unbound protein and photographed under a fluorescence microscope. Studies that employed native (unlabeled) proteins were performed as follows. Ten milligrams of beads displaying the peptoid were exposed to 1 μM protein in the presence of 1000-fold excess E. coli lysate, 0.2% Tween-20 and 0.2 M NaCl in a total volume of 2 ml at RT for 2 hrs. The beads were washed three times with TBST (20 mM Tris buffered saline+0.1% Tween-20). Ten microliters of 2×SDS-PAGE loading dye was then added directly to these beads and they were boiled for 10 mins.
To probe the binding chemistry of chimeric binding ligand formula 2 on a solid support, which is more relevant to the issue of creating high affinity protein capture agents, TentaGel beads were prepared that display either chalcone formula 1 alone, the 10 mer peptoid NH2-Nlys-Npip-Nlys-Nser-Nlys-Nlys-Nlys-Nlys-Npip-Npip alone, or the chalcone-peptoid chimeric binding element of formula 2. In the experiment shown in FIG. 24D, the beads and the Texas Red-labeled proteins (100 nM) indicated in the figure were incubated under demanding buffer conditions (1M NaCl and 1% Tween-20 in the presence of a 100-fold excess of E. coli proteins), then washed thoroughly. Two populations of beads were then mixed in a 1:1 ratio and photographed under a fluorescence microscope to provide a direct comparison.
After thorough washing, the beads were photographed in the fluorescence microscope using identical settings in each case.

His6Gal80 [4] = biological target: T1, His6Gal80; assay: lysate experiment: specificity of capture from E. coli lysate (silver stain); assay type: binding; conditions: Gal80 5% of total protein, silver staining
Experimental: Lysate Experiment. E. coli lysate was prepared by growing BL21 cells to an OD600 of 0.8. Cells were lysed by sonication in PBS buffer. After sonication, triton X-100 was added to 1%. His6Gal80 was doped into the E. coli lysate (67 μg/mL) such that it constituted 5% of the total protein. Approximately 0.02 g of Tentagel beads on which the Gal80-binding peptide had been synthesized and deprotected were added to 300 μL of the E. coli lysate containing His6Gal80 and incubated for 2 hours at 4° C. The beads were washed four times for ten minutes each time at 4 with PBS buffer+1% triton X-100 at 150 mM NaCl at 4° C. and then twice with PBS buffer. GSTGal4 AD (activation domain) was pre-incubated with glutathione sepharose beads and then used as a positive control to pull-down His6Gal80 from the lysate under the same conditions. Gel loading dye was added directly to the beads, loaded onto a SDS polyacrylamide gel and analyzed by silver stain.
To address this point, the Gal80 bp/Gal80 pair was again employed. His6Gal80 was doped into an E. coli lysate such that Gal80 represented 5% of the total protein concentration. This solution was then incubated with the Tentagel-bound Gal80 bp followed by thorough washing to remove any unbound material. The composition of the proteins captured by the peptide was then addressed by SDS-PAGE followed by silver staining. […]

solubility observations = assay type: physicochemical

T2 sequence (Q00987 whole entry, looked up, other chains not shown, the tested form may be a part): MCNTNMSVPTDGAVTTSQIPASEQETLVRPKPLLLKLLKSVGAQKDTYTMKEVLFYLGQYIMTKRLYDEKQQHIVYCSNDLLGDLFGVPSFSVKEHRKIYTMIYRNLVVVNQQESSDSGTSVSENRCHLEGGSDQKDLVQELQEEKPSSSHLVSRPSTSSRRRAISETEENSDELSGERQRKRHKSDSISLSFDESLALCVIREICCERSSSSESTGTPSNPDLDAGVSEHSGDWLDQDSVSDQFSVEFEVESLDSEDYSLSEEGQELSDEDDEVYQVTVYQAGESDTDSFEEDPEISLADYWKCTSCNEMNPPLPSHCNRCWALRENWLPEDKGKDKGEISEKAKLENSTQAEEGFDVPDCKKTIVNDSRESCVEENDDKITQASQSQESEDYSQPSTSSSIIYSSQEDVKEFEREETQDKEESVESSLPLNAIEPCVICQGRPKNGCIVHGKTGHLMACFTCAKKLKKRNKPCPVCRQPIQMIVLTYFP
T3 sequence (P08515 whole entry): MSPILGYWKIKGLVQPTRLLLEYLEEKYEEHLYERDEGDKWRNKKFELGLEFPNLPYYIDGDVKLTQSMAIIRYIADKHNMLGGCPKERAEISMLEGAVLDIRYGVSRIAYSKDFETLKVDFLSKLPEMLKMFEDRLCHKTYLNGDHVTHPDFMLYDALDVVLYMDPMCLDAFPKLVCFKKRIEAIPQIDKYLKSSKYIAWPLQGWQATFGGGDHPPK

CC(C)C[C@H](NC(=O)CNC(=O)[C@@H](N)Cc1c[nH]c2ccccc12)C(=O)N[C@@H](CCCNC(=N)N)C(=O)N[C@@H](C)C(=O)N[C@@H](CC(C)C)C(=O)N[C@@H](CCC(=O)O)C(=O)N[C@@H](CO)C(=O)N[C@@H](CCCNC(=N)N)C(=O)N[C@@H](Cc1c[nH]c2ccccc12)C(=O)N[C@@H](CC(=O)O)C(=O)N[C@@H](CCCNC(=N)N)C(=O)N[C@@H](Cc1ccc(O)cc1)C(=O)N[C@@H](Cc1ccc(O)cc1)C(=O)N[C@@H](Cc1ccccc1)C(=O)O (H-WGLRALESRWDRYYF-OH; C-terminus assumed)
functional dissociation constant of immobilized chimeric binding element (ubiquitin): at least in the low nanomolar range

CSCC[C@H](NC(=O)[C@H](CC(=O)O)NC(=O)[C@H](CCC(N)=O)NC(=O)[C@H](CC(=O)O)NC(=O)[C@@H](N)Cc1ccc(O)cc1)C(=O)N[C@@H](CCC(N)=O)C(=O)N[C@@H](CC(N)=O)C(=O)N[C@@H](CC(N)=O)C(=O)N[C@H](C(=O)N[C@@H](Cc1ccccc1)C(=O)N[C@@H](CC(=O)O)C(=O)N[C@@H](CC(=O)O)C(=O)N[C@@H](CC(C)C)C(=O)N[C@@H](Cc1ccccc1)C(=O)N[C@@H](Cc1c[nH]c2ccccc12)C(=O)N[C@@H](CCCCN)C(=O)N[C@@H](CCC(=O)O)C(=O)NCC(=O)N[C@@H](Cc1c[nH]cn1)C(=O)N[C@@H](CCCNC(=N)N)C(=O)O)[C@@H](C)O [Ga180bp] (H-YDQDMQNNTFDDLFWKEGHR-OH; N-terminus and C-terminus assumed)
dissociation constant of immobilized peptide for Gal80 dimer (His6Gal80 [1]): sub-nanomolar

NCCCCNCC(=O)N(CC(=O)N(CCCCN)CC(=O)N(CCO)CC(=O)N(CCCCN)CC(=O)N(CCCCN)CC(=O)N(CCCCN)CC(=O)N(CCCCN)CC(=O)N(CC(=O)N(CC(N)=O)Cc1ccc2c(c1)OCO2)Cc1ccc2c(c1)OCO2)Cc1ccc2c(c1)OCO2 [NH2-Nlys-Npip-Nlys-Nser-Nlys-Nlys-Nlys-Nlys-Npip-Npip] (H-[Nlys][Gly(N-piperonyl)][Nlys][Gly(N-CH2CH2OH)][Nlys][Nlys][Nlys][Nlys][Gly(N-piperonyl)][Gly(N-piperonyl)]-NH2; N-terminus and C-terminus assumed)
Kd (MBP-Mdm2 [2]): 378 µM

NCCCCN(CC(N)=O)C(=O)CN(Cc1ccc2c(c1)OCO2)C(=O)CN(CCc1ccc(S(N)(=O)=O)cc1)C(=O)CN(CCCCN)C(=O)CNCCc1ccc(S(N)(=O)=O)cc1 [Nbsa-Nlys-Nbsa-Npip-Nlys-CONH2] (H-[N(4-Sulfamoylphenethyl)Gly][Nlys][N(4-Sulfamoylphenethyl)Gly][Gly(N-piperonyl)][Nlys]-NH2)
Kd (GST): 62 µM

NCCCCNCC(=O)N(CCc1ccc(S(N)(=O)=O)cc1)CC(=O)N(CCCCN)CC(=O)N(CCO)CC(=O)N(CCc1ccc(S(N)(=O)=O)cc1)CC(=O)N(CC(=O)N(CCc1ccc(S(N)(=O)=O)cc1)CC(=O)N(CC(N)=O)Cc1ccc2c(c1)OCO2)Cc1ccc2c(c1)OCO2 [Nlys-Nbsa-Nlys-Nser-Nbsa-Npip-Nbsa-Npip] (H-[Nlys][N(4-Sulfamoylphenethyl)Gly][Nlys][Gly(N-CH2CH2OH)][N(4-Sulfamoylphenethyl)Gly][Gly(N-piperonyl)][N(4-Sulfamoylphenethyl)Gly][Gly(N-piperonyl)]-NH2)
Kd (MBP-Mdm2 [2]): 37 µM
Kd (MBP): > 1000 µM
MBP-Mdm2 protein retained by immobilized peptoid (MBP-Mdm2 [3]; native protein 1 μM, 1000-fold excess E. coli proteins, Western blot): about 10%

DLQRDTNKGFHEMFDWDYQN [Ga180bpscram]
proteins retained from Gal80-doped E. coli lysate (His6Gal80 [4]): No detectable proteins were retained

NH2-Lys(Chalcone)-Nlys-Npip-Nlys-Nser-Nlys-Nlys-Nlys-Nlys-Npip-Npip [formula 2]
Kd (MBP-Mdm2 [2]; in solution, read-out: equilibrium dissociation constant (KD), ITC): 1.3 µM
improvement in affinity relative to parent compound formula 1 (MBP-Mdm2 [2]; solution, ITC): at least 170 fold
Kd (MBP): > 6000 µM
solid phase MBP-Mdm2 affinity relative to components (MBP-Mdm2 [3]; 100 nM protein, 1M NaCl, 1% Tween-20, 100-fold excess E. coli proteins): higher affinity for Mdm2 than does either individual component of the chimera
lowest protein concentration at which capture of Mdm2 was apparent (MBP-Mdm2 [3]; 150 mM NaCl, 0.1% detergent, 100-fold excess E. coli proteins): 10 nM

Nmba-Nbsa-Nleu-Nlys-Npip-Nmba-Nleu-Nleu [random peptoid, reference compound]
native MBP-Mdm2 retained (MBP-Mdm2 [3]; 1000-fold excess E. coli proteins, Western blot): No detectable MBP-Mdm2 protein was retained

PREbp: Pre1 binding peptide isolated by phage display, free synthetic peptide before six polar amino acids were added (SHSTARGEQERAAVYLWFTYDHRSER)
solubility (solubility observations): insoluble
